Measured values taken from article PMC9403610, “Efficient screening of pancreatic lipase inhibitors from cod meat hydrolysate through ligand fishing strategy” (Frontiers in Nutrition, 2022).
Where no end group is shown, it is not given here.

What was measured:
[1] = target: T1, Porcine pancreatic lipase (PL) (Sus scrofa, UniProt P00591); test: Assay of PLIs kinetics (reversibility, Lineweaver-Burk plots); assay type: biochemical; details: from slope of Lineweaver-Burk plot vs. peptide concentration; read-out: Ki (competitive inhibition constant)
T1 construct: purchased Sigma Chemical Co. (St. Louis, MO, USA)
T1 sequence (P00591 1-450): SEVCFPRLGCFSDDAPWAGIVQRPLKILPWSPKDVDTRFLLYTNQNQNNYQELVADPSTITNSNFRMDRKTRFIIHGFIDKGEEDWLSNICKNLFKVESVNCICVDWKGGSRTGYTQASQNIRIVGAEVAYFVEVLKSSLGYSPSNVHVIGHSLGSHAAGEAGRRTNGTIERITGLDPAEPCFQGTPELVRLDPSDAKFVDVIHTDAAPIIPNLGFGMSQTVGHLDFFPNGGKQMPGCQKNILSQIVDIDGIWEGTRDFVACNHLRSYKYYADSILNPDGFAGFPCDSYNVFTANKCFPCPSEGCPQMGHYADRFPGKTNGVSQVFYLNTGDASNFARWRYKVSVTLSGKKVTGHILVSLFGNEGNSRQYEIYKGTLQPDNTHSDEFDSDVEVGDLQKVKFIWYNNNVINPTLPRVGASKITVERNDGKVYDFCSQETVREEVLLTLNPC
Description: According to the method reported in the previous literature, with a slight modification, the type of inhibition of PL by active peptides was determined ([29], [30]). The peptide (0.8 mg/mL, final concentration) was reacted with different concentrations (0, 5, 10, 15, 20 mg/mL) of PL for 10 min, then 10 mM pNPB was added for 10 min. the absorbance of the reaction system at a wavelength of 405 nm was measured to determine the reversibility of the reaction. Next, the optimal PL concentration (5 mg/mL) and peptide (0, 0.8 mg/mL, final concentration) were fixed, and pNPB with different concentrations (1, 2, 3, 4, and 5 mM) was added to react for 10 min, a value was measured every 30 s, and the wavelength was 405 nm. The Lineweaver-Burk double reciprocal curve was used to determine the maximum velocity (Vmax) and Michaelis–Menten constant (Km). The slope and y-intercept of the Lineweaver-Burk plot vs. peptide concentration give a straight line with the intercepts on the horizontal axis as Ki (competitive inhibition constant) and K'i values (uncompetitive inhibition constant), respectively.

[2] = target: T1, Porcine pancreatic lipase (PL); test: Pancreatic lipase inhibition assay (pNPB substrate, absorbance 405 nm); assay type: biochemical; details: for IC50: pNPB substrate, Tris-HCl pH 7.5, 37°C
Description: Grind small pieces of cod meat into surimi, add alkaline protease, and hydrolyze for 2 h. The enzyme was then inactivated by high temperature and centrifuged. Finally, the supernatant was spray dried to obtain cod peptide (CP). According to the method of Hou et al. ([28]), the PL inhibition test was carried out on the protein hydrolysates, its gel chromatography fraction, and the pure peptides. The sample and PL were dissolved in Tris-HCl buffer (pH = 7.5), and pNPB was dissolved in acetonitrile, and diluted with tris-HCl buffer. Add 100 μL of the sample, 200 μL of Tris-HCl buffer, 150 μL of PL (5 mg/mL) to a 1.5 mL EP tube, incubate at 37°C for 10 min, and then add 150 μL of […] pNPB, shake and mix, and incubate at 37°C for 10 min. After the reaction was completed, the absorbance value at 405 nm was measured with a multifunctional microplate reader, and the PL inhibitory activity was calculated according to the following equation: Inhibition rate (%) = 1- (absorbance in the presence of inhibitor/[…] in negative control) × 100%.

Ki [1] | IC50 [2] | remaining activity at 6000 µg/mL ([2]; peptide concentration 6 mg/mL, read-out: residual activity on PL) | Substance
4190 µM | 1000 µM |  | GSPPPSG [GSPPPSG]
1400 µM | 1350 µM | ~10% | KLEGDLK [KLEGDLK]
